{"source": "PubChem BioAssay AID2060893", "about": "(Molecular Pharmacology Branch, DTP, NCI, 2025)", "tested_on": "K86415-001-R-J1-PDC complex spheroids, viability", "test": "Anticancer human tumor K86415-001-R-J1-PDC patient-derived lung adenocarcinoma cell line growth inhibition [RAS]", "settings": "for IC50: curve of first compound; for viability, T/C: stronger effect = lower value", "procedure,_shortened": "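Multi-cell-type spheroids: tumor cells plus HUVEC endothelial cells and mesenchymal stem cells. RAS-pathway inhibitors were combined with targeted agents, each dosed in half-log steps down from clinical Cmax, or from 10 microM when Cmax was unknown.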"}
{"compound": "C=CC(=O)N1CCN(c2nc(OCC3CCCN3C)nc3c(F)c(-c4nc(N)cc(C)c4C(F)(F)F)c(Cl)cc23)C(C)C1", "note": "(centres undefined) + CCn1c(-c2cccnc2C(C)OC)c2c3cc(ccc31)N1CCOC(CC(NC(=O)C(C(C)C)N(C)C(=O)C3(F)CCN(C(=O)C#CC(C)(C)N(C)C)CC3)C(=O)N3CCCC(N3)C(=O)OCC(C)(C)C2)C1;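 also: spheroids exposed to agents for seven days before readout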", "values": [{"measurement": "IC50", "setting": "second compound 0.000949 µM", "value": "< 3.16", "unit": "nM"}, {"measurement": "IC50", "setting": "second compound 0.003 µM", "value": "< 3.16", "unit": "nM"}, {"measurement": "IC50", "setting": "second compound 0.00949 µM", "value": "< 3.16", "unit": "nM"}, {"measurement": "IC50", "setting": "second compound 0.03 µM", "value": "< 3.16", "unit": "nM"}, {"measurement": "IC50", "setting": "second compound 0.0949 µM", "value": "< 3.16", "unit": "nM"}, {"measurement": "IC50", "setting": "second compound 0.3 µM", "value": "< 3.16", "unit": "nM"}, {"measurement": "viability, T/C", "setting": "second compound 0.000949 µM, first compound 0.00316 µM", "value": 13.8, "unit": "%"}, {"measurement": "viability, T/C", "setting": "second compound 0.000949 µM, first compound 0.01 µM", "value": 12.1, "unit": "%"}, {"measurement": "viability, T/C", "setting": "second compound 0.000949 µM, first compound 0.0316 µM", "value": 9.94, "unit": "%"}, {"measurement": "viability, T/C", "setting": "second compound 0.000949 µM, first compound 0.1 µM", "value": 9.02, "unit": "%"}, {"measurement": "viability, T/C", "setting": "second compound 0.000949 µM, first compound 0.316 µM", "value": 11.8, "unit": "%"}, {"measurement": "viability, T/C", "setting": "second compound 0.000949 µM, first compound 1 µM", "value": 9.5, "unit": "%"}, {"measurement": "viability, T/C", "setting": "second compound 0.003 µM, first compound 0.00316 µM", "value": 13.5, "unit": "%"}, {"measurement": "viability, T/C", "setting": "second compound 0.003 µM, first compound 0.01 µM", "value": 12.9, "unit": "%"}, {"measurement": "viability, T/C", "setting": "second compound 0.003 µM, first compound 0.0316 µM", "value": 12.2, "unit": "%"}, {"measurement": "viability, T/C", "setting": "second compound 0.003 µM, first compound 0.1 µM", "value": 11.1, "unit": "%"}, {"measurement": "viability, T/C", "setting": "second compound 0.003 µM, first compound 0.316 µM", "value": 12, "unit": "%"}, {"measurement": "viability, T/C", "setting": "second compound 0.003 µM, first compound 1 µM", "value": 9.09, "unit": "%"}, {"measurement": "viability, T/C", "setting": "second compound 0.00949 µM, first compound 0.00316 µM", "value": 13.7, "unit": "%"}, {"measurement": "viability, T/C", "setting": "second compound 0.00949 µM, first compound 0.01 µM", "value": 10.7, "unit": "%"}, {"measurement": "viability, T/C", "setting": "second compound 0.00949 µM, first compound 0.0316 µM", "value": 14.6, "unit": "%"}, {"measurement": "viability, T/C", "setting": "second compound 0.00949 µM, first compound 0.1 µM", "value": 10.1, "unit": "%"}, {"measurement": "viability, T/C", "setting": "second compound 0.00949 µM, first compound 0.316 µM", "value": 10.7, "unit": "%"}, {"measurement": "viability, T/C", "setting": "second compound 0.00949 µM, first compound 1 µM", "value": 11.4, "unit": "%"}, {"measurement": "viability, T/C", "setting": "second compound 0.03 µM, first compound 0.00316 µM", "value": 13, "unit": "%"}, {"measurement": "viability, T/C", "setting": "second compound 0.03 µM, first compound 0.01 µM", "value": 13.4, "unit": "%"}, {"measurement": "viability, T/C", "setting": "second compound 0.03 µM, first compound 0.0316 µM", "value": 11.1, "unit": "%"}, {"measurement": "viability, T/C", "setting": "second compound 0.03 µM, first compound 0.1 µM", "value": 11.8, "unit": "%"}, {"measurement": "viability, T/C", "setting": "second compound 0.03 µM, first compound 0.316 µM", "value": 11.7, "unit": "%"}, {"measurement": "viability, T/C", "setting": "second compound 0.03 µM, first compound 1 µM", "value": 16.2, "unit": "%"}, {"measurement": "viability, T/C", "setting": "second compound 0.0949 µM, first compound 0.00316 µM", "value": 11, "unit": "%"}, {"measurement": "viability, T/C", "setting": "second compound 0.0949 µM, first compound 0.01 µM", "value": 10.7, "unit": "%"}, {"measurement": "viability, T/C", "setting": "second compound 0.0949 µM, first compound 0.0316 µM", "value": 13.2, "unit": "%"}, {"measurement": "viability, T/C", "setting": "second compound 0.0949 µM, first compound 0.1 µM", "value": 11.2, "unit": "%"}, {"measurement": "viability, T/C", "setting": "second compound 0.0949 µM, first compound 0.316 µM", "value": 12.8, "unit": "%"}, {"measurement": "viability, T/C", "setting": "second compound 0.0949 µM, first compound 1 µM", "value": 15.8, "unit": "%"}, {"measurement": "viability, T/C", "setting": "second compound 0.3 µM, first compound 0.00316 µM", "value": 12, "unit": "%"}, {"measurement": "viability, T/C", "setting": "second compound 0.3 µM, first compound 0.01 µM", "value": 12.6, "unit": "%"}, {"measurement": "viability, T/C", "setting": "second compound 0.3 µM, first compound 0.0316 µM", "value": 14.4, "unit": "%"}, {"measurement": "viability, T/C", "setting": "second compound 0.3 µM, first compound 0.1 µM", "value": 11.2, "unit": "%"}, {"measurement": "viability, T/C", "setting": "second compound 0.3 µM, first compound 0.316 µM", "value": 14, "unit": "%"}, {"measurement": "viability, T/C", "setting": "second compound 0.3 µM, first compound 1 µM", "value": 14.1, "unit": "%"}]}
{"compound": "CC1(C)CCC(Nc2ncc(C(F)(F)F)c(-c3c[nH]c4c(P(C)(C)=O)c(C#N)ccc34)n2)CN1", "note": "(centres undefined) + CCn1c(-c2cccnc2C(C)OC)c2c3cc(ccc31)N1CCOC(CC(NC(=O)C(C(C)C)N(C)C(=O)C3(F)CCN(C(=O)C#CC(C)(C)N(C)C)CC3)C(=O)N3CCCC(N3)C(=O)OCC(C)(C)C2)C1", "values": [{"measurement": "IC50", "setting": "second compound 0.000949 µM", "value": "< 0.949", "unit": "nM"}, {"measurement": "IC50", "setting": "second compound 0.003 µM", "value": "< 0.949", "unit": "nM"}, {"measurement": "IC50", "setting": "second compound 0.00949 µM", "value": "< 0.949", "unit": "nM"}, {"measurement": "IC50", "setting": "second compound 0.03 µM", "value": "< 0.949", "unit": "nM"}, {"measurement": "IC50", "setting": "second compound 0.0949 µM", "value": "< 0.949", "unit": "nM"}, {"measurement": "IC50", "setting": "second compound 0.3 µM", "value": "< 0.949", "unit": "nM"}, {"measurement": "viability, T/C", "setting": "second compound 0.000949 µM, first compound 0.000949 µM", "value": 46.4, "unit": "%"}, {"measurement": "viability, T/C", "setting": "second compound 0.000949 µM, first compound 0.003 µM", "value": 48.8, "unit": "%"}, {"measurement": "viability, T/C", "setting": "second compound 0.000949 µM, first compound 0.00949 µM", "value": 35.2, "unit": "%"}, {"measurement": "viability, T/C", "setting": "second compound 0.000949 µM, first compound 0.03 µM", "value": 57.9, "unit": "%"}, {"measurement": "viability, T/C", "setting": "second compound 0.000949 µM, first compound 0.0949 µM", "value": 54.9, "unit": "%"}, {"measurement": "viability, T/C", "setting": "second compound 0.000949 µM, first compound 0.3 µM", "value": 41.8, "unit": "%"}, {"measurement": "viability, T/C", "setting": "second compound 0.003 µM, first compound 0.000949 µM", "value": 15.9, "unit": "%"}, {"measurement": "viability, T/C", "setting": "second compound 0.003 µM, first compound 0.003 µM", "value": 14.2, "unit": "%"}, {"measurement": "viability, T/C", "setting": "second compound 0.003 µM, first compound 0.00949 µM", "value": 17.2, "unit": "%"}, {"measurement": "viability, T/C", "setting": "second compound 0.003 µM, first compound 0.03 µM", "value": 19.4, "unit": "%"}, {"measurement": "viability, T/C", "setting": "second compound 0.003 µM, first compound 0.0949 µM", "value": 22.6, "unit": "%"}, {"measurement": "viability, T/C", "setting": "second compound 0.003 µM, first compound 0.3 µM", "value": 20.4, "unit": "%"}, {"measurement": "viability, T/C", "setting": "second compound 0.00949 µM, first compound 0.000949 µM", "value": 13.5, "unit": "%"}, {"measurement": "viability, T/C", "setting": "second compound 0.00949 µM, first compound 0.003 µM", "value": 12.7, "unit": "%"}, {"measurement": "viability, T/C", "setting": "second compound 0.00949 µM, first compound 0.00949 µM", "value": 16.5, "unit": "%"}, {"measurement": "viability, T/C", "setting": "second compound 0.00949 µM, first compound 0.03 µM", "value": 20.3, "unit": "%"}, {"measurement": "viability, T/C", "setting": "second compound 0.00949 µM, first compound 0.0949 µM", "value": 20.1, "unit": "%"}, {"measurement": "viability, T/C", "setting": "second compound 0.00949 µM, first compound 0.3 µM", "value": 21.1, "unit": "%"}, {"measurement": "viability, T/C", "setting": "second compound 0.03 µM, first compound 0.000949 µM", "value": 13.3, "unit": "%"}, {"measurement": "viability, T/C", "setting": "second compound 0.03 µM, first compound 0.003 µM", "value": 16.3, "unit": "%"}, {"measurement": "viability, T/C", "setting": "second compound 0.03 µM, first compound 0.00949 µM", "value": 17, "unit": "%"}, {"measurement": "viability, T/C", "setting": "second compound 0.03 µM, first compound 0.03 µM", "value": 13.9, "unit": "%"}, {"measurement": "viability, T/C", "setting": "second compound 0.03 µM, first compound 0.0949 µM", "value": 14.8, "unit": "%"}, {"measurement": "viability, T/C", "setting": "second compound 0.03 µM, first compound 0.3 µM", "value": 21.1, "unit": "%"}, {"measurement": "viability, T/C", "setting": "second compound 0.0949 µM, first compound 0.000949 µM", "value": 12.1, "unit": "%"}, {"measurement": "viability, T/C", "setting": "second compound 0.0949 µM, first compound 0.003 µM", "value": 17.4, "unit": "%"}, {"measurement": "viability, T/C", "setting": "second compound 0.0949 µM, first compound 0.00949 µM", "value": 17.6, "unit": "%"}, {"measurement": "viability, T/C", "setting": "second compound 0.0949 µM, first compound 0.03 µM", "value": 19.6, "unit": "%"}, {"measurement": "viability, T/C", "setting": "second compound 0.0949 µM, first compound 0.0949 µM", "value": 15.4, "unit": "%"}, {"measurement": "viability, T/C", "setting": "second compound 0.0949 µM, first compound 0.3 µM", "value": 20.1, "unit": "%"}, {"measurement": "viability, T/C", "setting": "second compound 0.3 µM, first compound 0.000949 µM", "value": 15.7, "unit": "%"}, {"measurement": "viability, T/C", "setting": "second compound 0.3 µM, first compound 0.003 µM", "value": 15.3, "unit": "%"}, {"measurement": "viability, T/C", "setting": "second compound 0.3 µM, first compound 0.00949 µM", "value": 16.7, "unit": "%"}, {"measurement": "viability, T/C", "setting": "second compound 0.3 µM, first compound 0.03 µM", "value": 14.6, "unit": "%"}, {"measurement": "viability, T/C", "setting": "second compound 0.3 µM, first compound 0.0949 µM", "value": 18.2, "unit": "%"}, {"measurement": "viability, T/C", "setting": "second compound 0.3 µM, first compound 0.3 µM", "value": 20.9, "unit": "%"}]}
